For this assay, the system named is HSP-90 (heat shock protein 90). The assay is described as follows: Determination of affinity for HSP-90 (elution from purine affinity column). Note: key: +++: very high; ++: high; +: moderate. The conditions noted are these: relative binding affinity to HSP-90. The protocol: Affinity of test compounds for HSP-90 is determined as follows: Protein mixtures obtained from a variety of organ tissues (for example: spleen, liver and lung) are reversibly bound to a purine affinity column to capture purine-binding proteins, especially HSP-90. […] The elution profile of Formula I compounds is determined by 1-dimensional SDS polyacrylamide gel electrophoresis. Gels are stained with a fluorescent stain such as sypro ruby (a highly sensitive fluorescent protein stain that can readily detect less than 1 fmol of total protein, i.e., less than 0.04 ng for a 40 kDa protein) or silver nitrate. The gels are imaged using a standard flat bed gel imager and the amount of protein estimated by densitometry. The percent of HSP-90 protein eluted from the column at each concentration is determined and IC50 values are calculated from these estimates.

On to `COCCNc1c(-n2cc(C)c3c2CC(C)(C)CC3=O)ccc2c(N)ncnc12` [Compound 56, 1-(4-amino-8-(2-methoxyethylamino)quinazolin-7-yl)-3,6,6-trimethyl-6,7-dihydro-1H-indol-4(5H)-one], for which the Affinity entry is “+++”.
To `COCCCOc1c(-n2cc(C)c3c2CC(C)(C)CC3=O)ccc2c(N)ncnc12` [Compound 60, 1-(4-amino-8-(3-methoxypropoxy)quinazolin-7-yl)-3,6,6-trimethyl-6,7-dihydro-1H-indol-4(5H)-one] belongs “+++”.
To `Cc1cn(-c2cc(F)c3c(N)ncnc3c2)c2c1C(=O)CC(C)(C)C2` [Compound 63, 1-(4-amino-5-fluoroquinazolin-7-yl)-3,6,6-trimethyl-6,7-dihydro-1H-indol-4(5H)-one] belongs “+”.
To `Cc1cn(-c2ccc3c(N)ncnc3c2O)c2c1C(=O)CC(C)(C)C2` [Compound 68, 1-(4-amino-8-hydroxyquinazolin-7-yl)-3,6,6-trimethyl-6,7-dihydro-1H-indol-4(5H)-one] belongs “+++”.
For the compound `C#CCOc1cc(-n2cc(C)c3c2CC(C)(C)CC3=O)cc2ncnc(N)c12` [Compound 71, 1-(4-amino-5-(prop-2-ynyloxy)quinazolin-7-yl)-3,6,6-trimethyl-6,7-dihydro-1H-indol-4(5H)-one], the Affinity result is on record as “+”.
Then `CCCCSc1c(-n2cc(C)c3c2CC(C)CC3=O)ccc2c(N)ncnc12` (centres unmarked) [Compound 72, 1-(4-amino-8-(butylthio)quinazolin-7-yl)-3,6-dimethyl-6,7-dihydro-1H-indol-4(5H)-one], with “++”.
Then `COc1cc(-n2cc(C)c3c2CC(C)(C)CC3=O)cc2ncnc(N)c12` [Compound 76, 1-(4-amino-5-methoxyquinazolin-7-yl)-3,6,6-trimethyl-6,7-dihydro-1H-indol-4(5H)-one], with “++”; and `Cc1cn(-c2ccc3c(N)ncnc3c2SCCNC(=O)OC(C)(C)C)c2c1C(=O)CC(C)(C)C2` [Compound 77, tert-butyl 2-(4-amino-7-(3,6,6-trimethyl-4-oxo-4,5,6,7-tetrahydro-1H-indol-1-yl)quinazolin-8-ylthio)ethylcarbamate], with “++”.
To `Cc1cn(-c2ccc3c(N)ncnc3c2Cl)c2c1C(=O)CC(C)(C)C2` [Compound 80, 1-(4-amino-8-chloroquinazolin-7-yl)-3,6,6-trimethyl-6,7-dihydro-1H-indol-4(5H)-one] belongs “++”; to `CC(C)Cc1nn(-c2ccc3c(N)ncnc3c2)c2c1C(=O)CC(C)(C)C2` [Compound 87, 1-(4-aminoquinazolin-7-yl)-3-isobutyl-6,6-dimethyl-6,7-dihydro-1H-indazol-4(5H)-one], “+++”.
With `Cc1nn(-c2ccc3c(N)ncnc3c2)c2c1C(=O)CCC2` [Compound 88, 1-(4-aminoquinazolin-7-yl)-3-methyl-6,7-dihydro-1H-indazol-4(5H)-one], the Affinity entry was “+”.
Then `Cc1cn(-c2ccc3c(N)ncnc3c2SCCO)c2c1C(=O)CC(C)(C)C2` [Compound 93, 1-(4-amino-8-(2-hydroxyethylthio)quinazolin-7-yl)-3,6,6-trimethyl-6,7-dihydro-1H-indol-4(5H)-one], with “+++”; and `Cc1nn(-c2ccc3c(N)ncnc3c2F)c2c1C(=O)CC(C)(C)C2` [Compound 95, 1-(4-amino-8-fluoroquinazolin-7-yl)-3,6,6-trimethyl-6,7-dihydro-1H-indazol-4(5H)-one], with “+++”; and `Cc1nn(-c2ccc3c(N)ncc(C#N)c3c2)c2c1C(=O)CC(C)(C)C2` [Compound 98, 1-amino-6-(3,6,6-trimethyl-4-oxo-4,5,6,7-tetrahydro-1H-indazol-1-yl)isoquinoline-4-carbonitrile], with “++”.
To `Cc1nn(-c2ccc3c(N)ncc(C(N)=O)c3c2)c2c1C(=O)CC(C)(C)C2` [Compound 99, 1-amino-6-(3,6,6-trimethyl-4-oxo-4,5,6,7-tetrahydro-1H-indazol-1-yl)isoquinoline-4-carboxamide] belongs “++”; to `Cc1cn(-c2ccc3c(N)ncc(/C(N)=N/O)c3c2)c2c1C(=O)CC(C)(C)C2` [Compound 105, (Z)-1-amino-N′-hydroxy-6-(3,6,6-trimethyl-4-oxo-4,5,6,7-tetrahydro-1H-indol-1-yl)isoquinoline-4-carboximidamide], “+++”; to `Cc1cn(-c2ccc3c(N)ncc(C(=O)O)c3c2)c2c1C(=O)CC(C)(C)C2` [Compound 106, 1-amino-6-(3,6,6-trimethyl-4-oxo-4,5,6,7-tetrahydro-1H-indol-1-yl)isoquinoline-4-carboxylic acid], “++”.
